Patent publication US20100324284A1, “PYRROLOPYRIMIDINE DERIVATIVE AS P13K INHIBITOR AND USE THEREOF” (CHUGAI SEIYAKU KABUSHIKI KAISHA, priority 2008, published 2010)

Assays:
[1] = target: human PI3K (p110α/p85α) (Homo sapiens, UniProt P42336); test: Measurement of PI3K inhibitory activity (AlphaScreen GST Detection Kit); format: biochemical; settings: 10 μM ATP, 4 μM PI(4,5)P2, read-out: Enzyme inhibitory activity (IC50, μM) PI3K α
Experimental: The inhibitory activity of compounds of the present invention represented by formula (I) was measured with human PI3K (p110α/p85α) prepared in a baculovirus expression system using the AlphaScreen GST Detection Kit (Perkin Elmer, Inc.). A predetermined concentration of the compound of the present invention dissolved in dimethylsulfoxide (DMSO) and PI3K were mixed in a 384-well assay plate and after allowing to stand for 20 minutes at room temperature, 4 μM PI(4,5)P2 (Echelon Corporation) and 10 μM ATP (5 mM Hepes, pH 7.5, 2.5 mM MgCl2) were added to initiate the reaction. After reacting at 37° C. for 15 minutes, GST-GRP1 expressed and purified from Escherichia coli, Anti-GST Acceptor Beads (Perkin Elmer, Inc.), Streptavidin Donor Beads (Perkin Elmer, Inc.) and biotin-PI (3,4,5)P3 (Echelon Corporation) (10 mM Tris-HCl pH 7.4, 150 mM NaCl, 7.5 mM EDTA, 1 mM DTT, 0.1% Tween 20) were added, and after allowing to stand for 1 hour at room temperature, light at 520 to 620 nm emitted as a result of exciting with light at 680 nm was measured with the EnVision measuring instrument (Perkin Elmer, Inc.).
Test Example 1 described above can be performed according to “Analytical Biochemistry, 2003, 313, 234-245; Alexander Gray et al”.

[2] = tested on: human colon cancer cell line HCT116; test: Cell proliferation inhibitory activity, HCT116 (Cell Counting Kit-8); format: cell-based; settings: HCT-116, 96 h, HCT116, 4 days
Experimental: (§1) The cell proliferation inhibitory activity was measured for compounds of the present invention represented by formula (I). Cancer cell proliferation inhibitory activity was measured using the Cell Counting Kit-8 (Dojindo). 2000 cells each of human colon cancer cell line HCT116 purchased from the American Type Culture Collection (Virginia, USA) were seeded into each well of a 96-well culture plate followed by the addition of a predetermined concentration of the compounds and cultivating in a 5% CO2 environment at 37° C. for 4 days. On the fourth day of cultivating, the Cell Counting Kit-8 solution was added and absorbance (measuring wavelength: 450 nm, reference wavelength: 615 nm) was measured in accordance with the protocol provided with the kit.

[3] = tested on: human prostate cancer cell line PC3; test: Cell proliferation inhibitory activity, PC3 (Cell Counting Kit-8); format: cell-based; settings: PC-3, 96 h, PC3, 4 days
Experimental: as §1
(§2) Cancer cell proliferation inhibitory activity was also measured for human lung cancer cell line NCI-H460 and human prostate cancer cell line PC3 purchased from the American Type Culture Collection.

[4] = tested on: human lung cancer cell line NCI-H460; test: Cell proliferation inhibitory activity, NCI-H460 (Cell Counting Kit-8); format: cell-based; settings: 96 h, NCI-H460, 4 days, read-out: Cell proliferation inhibitory activity (IC50, μM) Non-small cell cancer (NCIH460)
Experimental: as §1, §2

Sequence of human PI3K (p110α/p85α) (P42336 whole entry): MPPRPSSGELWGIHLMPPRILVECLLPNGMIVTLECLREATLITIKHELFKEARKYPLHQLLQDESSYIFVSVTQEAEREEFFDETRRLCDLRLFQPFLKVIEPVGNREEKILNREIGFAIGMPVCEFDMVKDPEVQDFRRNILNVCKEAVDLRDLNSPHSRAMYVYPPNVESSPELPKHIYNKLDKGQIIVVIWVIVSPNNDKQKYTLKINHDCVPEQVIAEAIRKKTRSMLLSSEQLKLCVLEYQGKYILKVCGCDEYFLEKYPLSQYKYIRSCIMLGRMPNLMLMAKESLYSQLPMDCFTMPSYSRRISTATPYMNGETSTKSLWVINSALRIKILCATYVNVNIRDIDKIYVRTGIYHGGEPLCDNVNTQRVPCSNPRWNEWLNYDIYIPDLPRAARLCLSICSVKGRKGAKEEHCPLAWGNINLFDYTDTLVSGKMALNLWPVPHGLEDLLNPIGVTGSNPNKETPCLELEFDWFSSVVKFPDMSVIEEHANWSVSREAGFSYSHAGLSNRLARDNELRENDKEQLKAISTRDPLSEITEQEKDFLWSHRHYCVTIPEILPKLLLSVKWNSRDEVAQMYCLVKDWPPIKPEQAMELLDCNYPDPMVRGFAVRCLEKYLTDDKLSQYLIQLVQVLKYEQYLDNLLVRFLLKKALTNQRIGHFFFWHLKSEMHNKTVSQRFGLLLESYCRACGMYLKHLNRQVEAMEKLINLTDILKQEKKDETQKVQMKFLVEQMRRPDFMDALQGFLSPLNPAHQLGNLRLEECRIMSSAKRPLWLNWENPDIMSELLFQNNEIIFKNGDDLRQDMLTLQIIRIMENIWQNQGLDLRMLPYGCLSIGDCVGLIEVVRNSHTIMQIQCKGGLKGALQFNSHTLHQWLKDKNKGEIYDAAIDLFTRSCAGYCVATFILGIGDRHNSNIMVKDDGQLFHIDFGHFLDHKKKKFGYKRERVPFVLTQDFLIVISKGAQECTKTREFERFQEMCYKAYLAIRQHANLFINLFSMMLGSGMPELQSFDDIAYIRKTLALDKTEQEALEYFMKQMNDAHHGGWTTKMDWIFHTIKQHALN
Sequence of human PI3K (p110α/p85α) (P27986 whole entry partner): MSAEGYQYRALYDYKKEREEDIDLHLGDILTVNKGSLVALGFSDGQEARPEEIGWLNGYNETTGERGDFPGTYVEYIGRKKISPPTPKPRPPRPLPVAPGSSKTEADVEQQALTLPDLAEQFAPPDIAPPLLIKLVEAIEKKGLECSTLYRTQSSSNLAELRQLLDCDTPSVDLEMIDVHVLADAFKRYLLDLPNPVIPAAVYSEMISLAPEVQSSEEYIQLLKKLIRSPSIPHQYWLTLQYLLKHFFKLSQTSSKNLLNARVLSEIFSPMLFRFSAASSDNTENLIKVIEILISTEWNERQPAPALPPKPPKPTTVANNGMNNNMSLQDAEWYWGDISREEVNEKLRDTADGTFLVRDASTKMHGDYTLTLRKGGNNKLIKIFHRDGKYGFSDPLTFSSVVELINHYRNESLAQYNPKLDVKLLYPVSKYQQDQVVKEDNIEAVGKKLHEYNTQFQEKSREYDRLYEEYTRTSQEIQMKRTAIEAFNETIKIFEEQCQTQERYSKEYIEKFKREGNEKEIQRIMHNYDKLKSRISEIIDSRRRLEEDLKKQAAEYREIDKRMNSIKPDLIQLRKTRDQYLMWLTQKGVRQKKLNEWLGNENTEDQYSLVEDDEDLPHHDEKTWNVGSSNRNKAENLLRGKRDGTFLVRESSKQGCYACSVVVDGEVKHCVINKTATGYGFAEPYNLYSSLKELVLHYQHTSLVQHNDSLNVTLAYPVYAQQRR

Row | SMILES | IC50 [1] [µM] | IC50 [2] [µM] | IC50 [3] [µM] | IC50 [4] [µM]
1 | Nc1ncc(-c2nc(N3CCOCC3)nc3c2ccn3-c2ccc(CN3CCS(=O)(=O)CC3)cc2)cn1 [Compound 3-1, 5-{7-[4-(1,1-dioxo-1λ^6-thiomorpholin-4-ylmethyl)-phenyl]-2-morpholin-4-yl-7H-pyrrolo[2,3-d]pyrimidin-4-yl}-pyrimidin-2-ylamine] | 0.093 | 0.57 | 0.43 | 0.17
2 | CS(=O)(=O)n1ccc2c(-c3cnc(N)nc3)nc(N3CCOCC3)nc21 [Compound 4-1, 5-(7-methanesulfonyl-2-morpholin-4-yl-7H-pyrrolo[2,3-d]pyrimidin-4-yl)-pyrimidin-2-ylamine] | 0.016 | 0.41 | 1.14 | 0.29
3 | CCN1CCN(c2cc(-n3ccc4c(-c5cnc(N)nc5)nc(N5CCOCC5)nc43)ccn2)CC1 [Compound 1-1, 5-{7-[2-(4-Ethyl-piperazin-1-yl)-pyridin-4-yl]-2-morpholin-4-yl-7H-pyrrolo[2,3-d]pyrimidin-4-yl}-pyrimidin-2-ylamine] | 0.007 | 0.12 | 0.18 | 0.071
4 | Cc1ccc(C(=O)N2CCOCC2)cc1-n1ccc2c(-c3cnc(N)nc3)nc(N3CCOCC3)nc21 [Compound 2-1, {3-[4-(2-amino-pyrimidin-5-yl)-2-morpholin-4-yl-pyrrolo[2,3-d]pyrimidin-7-yl]-4-methyl-phenyl}-morpholin-4-yl-methanone] | 0.093 | 1.45 | 3.18 | 1.25
